Source: US20240180895A1, “USE OF KAPPA OPIOID RECEPTOR AGONISTS TO TREAT CARDIOVASCULAR DISEASE” (Board of Supervisors of Louisiana State University and …, priority 2021, published 2024)

Tests used:
[1] = test system: hemodialysis patients; details: nearly 4000 hemodialysis patients (Kozono, Yoshitani, et al., 2018); cited from earlier work
[2] = test system: spontaneously hypertensive rats; assay: Chronic oral nalfurafine, radiotelemetry blood pressure (FIG. 18); type: in vivo, rat; details: nalfurafine 0.5 mg/kg oral once per day for 5 weeks
Protocol: (§1) Male spontaneously hypertensive rats (SHR; Charles Rivers) were single housed and allowed tap water and standard rodent diet ad libitum. All procedures and experiments were conducted in accordance with the National Institutes of Health guidelines for the care and use of animals.
(§2) Radiotelemetry transmitters (Data Sciences International, St. Paul, MN) were implanted into SHR for chronic recording of blood pressure and heart rate and followed as previously published.^56 Briefly, rats were anesthetized and maintained on 2% isoflurane and the right femoral artery was surgically exposed. The transmitter catheter was inserted into the femoral artery and advanced until reaching the abdominal aorta. The site exposing the femoral artery was sutured and rats were allowed 1 week of recovery. Telemetry data was analyzed using Ponemah software (DSI, St. Paul, MN).
Spontaneously hypertensive rats were orally administered (gavage) nalfurafine (0.5 mg/kg) or vehicle (water) once per day for 5 weeks following recovery from radiotelemetry transmitter insertion. Blood pressure was recorded once per week and the 12:00-14:00 time frame was plotted.
(§3) All results are expressed as mean±SEM. Statistically different changes for both experimental protocols were determined using 2-way ANOVA with repeated measures and were considered statistically different following a significant/value for an interaction between experimental group and time. Statistical significance was determined as P<0.05, and statistics were performed on Prism 7.05 software (GraphPad Software, Inc, San Diego, CA).

[3] = test system: conscious Sprague-Dawley rats; assay: Acute cardiovascular and renal excretory studies with ICV or IV norBNI pretreatment (Example 4); type: in vivo, rat; details: for Total urine output: difelikefalin 10 μg/kg or nalfurafine 5 μg/kg IV, 90 min; for Urine osmolality / Urine potassium concentration [K+] / Urine sodium concentration [Na+]: total 90-min urine
Protocol: Male Sprague-Dawley rats (Envigo Labs, Indianapolis, IN) were individually housed, allowed tap water and standard rodent diet ad libitum, and kept under a 12-hour light-dark cycle. Rats used in these experiments weighed between 300 and 350 grams and were randomly assigned to experimental groups. All procedures were conducted in accordance with the National Institutes of Health guidelines for the care and use of animals and approved by the Louisiana State University Health Sciences Center Institutional Animal Care and Use Committee.
Aseptic technique was adhered to for all surgeries and detailed surgical methods were followed as previously described.^14 Briefly, 3-5 days before experimentation, rats requiring central ventricle access for administration of drug/vehicle into the brain were anesthetized with ketamine and xylazine and a stainless-steel cannula was stereotaxically implanted into the right lateral cerebral ventricle.^14
On the morning of the experiment, rats were anesthetized and maintained with inhaled 2% isoflurane, and polyethylene catheters were surgically placed into the left femoral artery, left femoral vein, and urinary bladder.^15.16 Following surgery, rats were placed in an elevated restrainer for recovery and collection of urine from an indwelling bladder catheter.^15 After completion of experimental protocols, rats were anesthetized with isoflurane and decapitated.
During stabilization of cardiovascular and renal excretory parameters, rats received an isotonic saline infusion (55 μl/min), which lasted throughout the duration of the experiment. To record mean arterial pressure (MAP) and heart rate (HR), arterial catheters were connected to a pressure transducer (MLT0670, ADInstruments, Sydney, Australia), which was connected to Powerlab 8/30 (ADInstruments) and visualized using LabChart software (v8.1.5; ADInstruments). After one hour of recovery from surgery, rats were pretreated with the KOR antagonist norBNI or isotonic saline vehicle through either an intracerebroventricular (ICV) catheter or intravenous (IV) catheter. […] Next, drug or vehicle (isotonic saline) was injected into the femoral vein and urine samples were collected every 10 minutes during a 90-minute experimental period. The following drug concentrations were used: nalfurafine 5 μg/kg, difelikefalin 10 μg/kg, norBNI 30 mg/kg (IV), norBNI 1 μg/5 μL (ICV). All groups are n=6. Urine sodium and potassium were measured using a flame photometer (model 943; Instrumentation Laboratories, Lexington, MA). Urine volume was measured gravimetrically, and urine osmolality was measured using a vapor pressure osmometer (model 5600; WESCOR, Logan, UT).
All results are expressed as mean±SEM. For determining statistically different changes at time points within a treatment group, means were compared to the control value using 2-way ANOVA with repeated measures and a post hoc Dunnett test following confirmation of a significant F value. For statistically different changes at individual time points between treatment groups, mean values were compared using 2-way ANOVA with repeated measures and a post hoc Sidak test following confirmation of a significant/value. For means between groups for total urine output, urine sodium concentration, urine potassium concentration, and urine osmolality, a Student/test was used. Statistical significance was characterized as P<0.05 and statistics were performed on Prism 7.05 software (GraphPad Software, Inc, San Diego, CA).

[4] = test system: spontaneously hypertensive rats; assay: Chronic subcutaneous infusion of nalfurafine, radiotelemetry blood pressure (FIG. 19); type: in vivo, rat
Protocol: as §1, §2
In a separate cohort, spontaneously hypertensive rats were administered a subcutaneous nalfurafine infusion (0.3 mg/day) or vehicle (isotonic saline) using an osmotic pump (2ML4; Alzet) for 4 weeks. For the insertion of the osmotic pumps, rats were anesthetized and maintained under 2% isoflurane, a small incision was made at the nape, and the osmotic pump was inserted between the scapulae. The incision was sutured, and rats were returned to their home cages. Blood pressure was recorded throughout the entirety of the experiment and the 20:00-22:00 time frame was plotted.
as §3

[5] = ICV norBNI (1 μg/5 μL) pretreatment
[6] = IV norBNI (30 mg/kg) pretreatment
[7] = subcutaneous infusion 0.3 mg/day, 30 days

CN(C(=O)/C=C/c1ccoc1)[C@@H]1CC[C@@]2(O)[C@H]3Cc4ccc(O)c5c4[C@@]2(CCN3CC2CC2)[C@H]1O5 [nalfurafine, Nalfurafine]
Dysphoric adverse effects [1]: did not cause the typical dysphoric adverse effects | Diastolic blood pressure and heart rate vs vehicle [2]: no significant interaction between treatment over time for diastolic blood pressure or heart rate | Mean arterial pressure vs vehicle ([2]; 12:00-14:00 time frame): significantly lower mean arterial pressure at the 3-week time point | Systolic blood pressure vs vehicle ([2]; 12:00-14:00 time frame): significantly lower in the nalfurafine group compared to vehicle at 3, 4, and 5 weeks | Effect on MAP [3, 5]: prevented the decrease in MAP | Total urine output [3, 5]: 4.72 ± 0.41 mL | Urine osmolality [3, 5]: 358.5 ± 30.6 mmol/kg | Urine potassium concentration [K+] [3, 5]: 12.77±3.99 μeq/mL | Urine sodium concentration [Na+] [3, 5]: 82.33±7.74 μeq/mL | Total urine output ([3]; ICV vehicle (5 μL) pretreatment): 8.37 ± 0.40 mL | Effect on HR ([3]; ICV vehicle pretreatment): slight but statistically significant increase in HR | MAP peak Δ ([3]; ICV vehicle pretreatment, peak at 60 min (difelikefalin), 50 min (nalfurafine)): −6 mmHg | Urine osmolality ([3]; ICV vehicle pretreatment): 164 ± 8.09 mmol/kg | Urine potassium concentration [K+] ([3]; ICV vehicle pretreatment): 8.19±2.15 μeq/mL | Urine sodium concentration [Na+] ([3]; ICV vehicle pretreatment): 37.78±5.35 μeq/mL | Effect on HR [3, 6]: did not produce any change in HR | MAP peak Δ ([3]; IV norBNI (30 mg/kg) pretreatment, 80-minute peak for difelikefalin): abolished | Total urine output [3, 6]: 5.03 ± 0.39 mL | Urine osmolality [3, 6]: 439.2 ± 24.02 mmol/kg | Urine potassium concentration [K+] [3, 6]: 10.94±1.09 μeq/mL | Urine sodium concentration [Na+] [3, 6]: 109.1±7.85 μeq/mL | Total urine output ([3]; IV vehicle (2 cc/kg) pretreatment): 9.37 ± 0.42 mL | Effect on HR ([3]; IV vehicle pretreatment): did not produce any change in HR | Urine osmolality ([3]; IV vehicle pretreatment): 148.7 ± 4.4 mmol/kg | Urine potassium concentration [K+] ([3]; IV vehicle pretreatment): 5.49±0.68 μeq/mL | Urine sodium concentration [Na+] ([3]; IV vehicle pretreatment): 32.56±3.05 μeq/mL | Decrease in systolic, diastolic, and mean arterial pressure ([4]; 1 day of subcutaneous nalfurafine infusion 0.3 mg/day, 20:00-22:00 time frame): ~20 mmHg | Heart rate vs vehicle [4, 7]: significantly lower heart rate than the vehicle treated group on day 9, day 16-22, and day 25-30 | Systolic, diastolic, mean arterial pressure and heart rate over time [4, 7]: did not demonstrate an increase in these parameters
